# Reference: patent US9611249B2, “1H-indazole-3-carboxamide compounds as glycogen synthase kinase 3 beta inhibitors” (AZIENDE CHIMICHE RIUNITE ANGELINI FRANCESCO A.C.R.A.F. …, priority 2012, dated 2017)
# How the values were obtained:
# Assay type in all cases: biochemical
# Settings in all cases: 10 μM in duplicate, read-out: % inhibition of control values
# [1] = target: IKKalpha (h) (Homo sapiens (Human), UniProt O15111); assay: Kinase selectivity panel: IKKalpha (h)
# Method: (§1) (a) Compounds 1 and 2 were tested against a panel of 60 kinases in order to assess their selectivity. The assays were chosen taking into consideration the diversity of assay families.
# (§2) Tested kinases were representative of following kinase sub-families: • protein-serine/threonine kinases; • protein-tyrosine kinases; • other kinases; and • atypical kinases.
# (§3) Human recombinant kinases were incubated in the presence of specific peptide substrates plus ATP for different times (10, 15, 30, 60 or 90 minutes) at 22° C. Phosphorylated substrate was detected by LANCE or HTRF technology (CISBIO, MA, USA). The compounds were tested at 10 μM in duplicate.
# (§4) The results are expressed as a percentage of inhibition of control specific activity obtained in the presence of the test compounds and are reported in the following Table 5.
# (§5) (b) Compounds 3, 8, 29 and 31 were tested against the same panel of 60 kinases under the same conditions described above for compounds 1 and 2.
# (§6) The results are expressed as a percent of inhibition of control specific activity obtained in the presence of the test compounds and are reported in the following Table 6.
# [2] = target: Abl kinase (h) (Homo sapiens (Human), UniProt P00519); assay: Kinase selectivity panel: Abl kinase (h)
# Abl kinase (h), sequence (P00519 whole entry): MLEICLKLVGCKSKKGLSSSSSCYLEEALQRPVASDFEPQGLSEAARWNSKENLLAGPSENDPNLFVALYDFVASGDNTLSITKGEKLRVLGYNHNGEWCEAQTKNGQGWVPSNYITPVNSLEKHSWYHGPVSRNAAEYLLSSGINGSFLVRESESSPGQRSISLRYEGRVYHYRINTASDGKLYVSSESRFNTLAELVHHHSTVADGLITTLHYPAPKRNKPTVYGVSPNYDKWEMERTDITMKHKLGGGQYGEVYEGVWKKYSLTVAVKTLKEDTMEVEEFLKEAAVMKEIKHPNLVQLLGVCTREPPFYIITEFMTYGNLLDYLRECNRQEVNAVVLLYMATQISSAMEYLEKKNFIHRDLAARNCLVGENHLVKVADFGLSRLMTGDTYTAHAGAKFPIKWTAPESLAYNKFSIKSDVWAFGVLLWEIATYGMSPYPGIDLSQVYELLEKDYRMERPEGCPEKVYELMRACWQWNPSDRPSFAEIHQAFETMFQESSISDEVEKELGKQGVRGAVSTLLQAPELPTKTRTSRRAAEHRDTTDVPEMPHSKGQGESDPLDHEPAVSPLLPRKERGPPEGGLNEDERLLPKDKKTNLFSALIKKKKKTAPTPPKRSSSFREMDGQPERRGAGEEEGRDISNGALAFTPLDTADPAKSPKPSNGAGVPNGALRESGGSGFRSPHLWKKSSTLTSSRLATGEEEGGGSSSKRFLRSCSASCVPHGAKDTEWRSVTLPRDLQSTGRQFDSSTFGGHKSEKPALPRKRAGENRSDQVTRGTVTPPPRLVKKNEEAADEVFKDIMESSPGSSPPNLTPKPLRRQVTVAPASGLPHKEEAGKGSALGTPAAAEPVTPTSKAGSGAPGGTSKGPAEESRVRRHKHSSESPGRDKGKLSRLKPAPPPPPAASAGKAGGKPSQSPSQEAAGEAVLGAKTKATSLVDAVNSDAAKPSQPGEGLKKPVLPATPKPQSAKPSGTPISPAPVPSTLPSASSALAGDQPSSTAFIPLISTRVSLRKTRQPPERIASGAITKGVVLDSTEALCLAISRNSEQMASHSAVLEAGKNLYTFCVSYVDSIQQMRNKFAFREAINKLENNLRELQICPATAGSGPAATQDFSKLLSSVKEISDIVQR
# Method: as §1, §2, §3, §4, §5, §6
# [3] = target: PDK1 (h) (Homo sapiens (Human), UniProt O15530); assay: Kinase selectivity panel: PDK1 (h)
# Method: as §1, §2, §3, §4, §5, §6
# [4] = target: CDK2 (h) (cycA) (Homo sapiens (Human), UniProt P24941); assay: Kinase selectivity panel: CDK2 (h) (cycA)
# Method: as §1, §2, §3, §4, §5, §6
# [5] = target: Pim1 kinase (h) (Homo sapiens (Human), UniProt P11309); assay: Kinase selectivity panel: Pim1 kinase (h)
# Method: as §1, §2, §3, §4, §5, §6
# [6] = target: FGFR1 kinase (h) (Homo sapiens (Human), UniProt P11362); assay: Kinase selectivity panel: FGFR1 kinase (h)
# Method: as §1, §2, §3, §4, §5, §6
# [7] = target: PKA (h) (Homo sapiens (Human), UniProt P17612); assay: Kinase selectivity panel: PKA (h)
# Method: as §1, §2, §3, §4, §5, §6
# [8] = target: PAK1 (h) (Homo sapiens (Human), UniProt Q13153); assay: Kinase selectivity panel: PAK1 (h)
# PAK1 (h), sequence (Q13153 whole entry): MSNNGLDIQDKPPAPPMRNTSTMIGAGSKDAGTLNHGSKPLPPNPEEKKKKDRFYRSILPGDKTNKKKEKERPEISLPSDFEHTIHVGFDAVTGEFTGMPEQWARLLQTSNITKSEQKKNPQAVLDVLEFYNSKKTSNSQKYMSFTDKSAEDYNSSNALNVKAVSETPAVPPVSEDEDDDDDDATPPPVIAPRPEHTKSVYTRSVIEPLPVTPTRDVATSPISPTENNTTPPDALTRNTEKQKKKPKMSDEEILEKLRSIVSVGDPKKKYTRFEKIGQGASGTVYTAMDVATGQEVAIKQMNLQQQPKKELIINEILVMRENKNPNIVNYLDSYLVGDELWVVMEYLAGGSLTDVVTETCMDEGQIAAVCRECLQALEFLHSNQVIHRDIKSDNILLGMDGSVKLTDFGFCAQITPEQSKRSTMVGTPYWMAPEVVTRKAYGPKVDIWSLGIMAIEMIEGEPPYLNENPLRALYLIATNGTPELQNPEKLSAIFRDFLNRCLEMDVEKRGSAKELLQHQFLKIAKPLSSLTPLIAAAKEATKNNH
# Method: as §1, §2, §3, §4, §5, §6
# [9] = target: MNK2 (h) (Homo sapiens (Human), UniProt Q9HBH9); assay: Kinase selectivity panel: MNK2 (h)
# Method: as §1, §2, §3, §4, §5, §6
# [10] = target: GRK3/BARK2 (h) (ADRBK2) (Homo sapiens (Human), UniProt P35626); assay: Kinase selectivity panel: GRK3/BARK2 (h) (ADRBK2)
# GRK3/BARK2 (h) (ADRBK2), sequence (P35626 whole entry): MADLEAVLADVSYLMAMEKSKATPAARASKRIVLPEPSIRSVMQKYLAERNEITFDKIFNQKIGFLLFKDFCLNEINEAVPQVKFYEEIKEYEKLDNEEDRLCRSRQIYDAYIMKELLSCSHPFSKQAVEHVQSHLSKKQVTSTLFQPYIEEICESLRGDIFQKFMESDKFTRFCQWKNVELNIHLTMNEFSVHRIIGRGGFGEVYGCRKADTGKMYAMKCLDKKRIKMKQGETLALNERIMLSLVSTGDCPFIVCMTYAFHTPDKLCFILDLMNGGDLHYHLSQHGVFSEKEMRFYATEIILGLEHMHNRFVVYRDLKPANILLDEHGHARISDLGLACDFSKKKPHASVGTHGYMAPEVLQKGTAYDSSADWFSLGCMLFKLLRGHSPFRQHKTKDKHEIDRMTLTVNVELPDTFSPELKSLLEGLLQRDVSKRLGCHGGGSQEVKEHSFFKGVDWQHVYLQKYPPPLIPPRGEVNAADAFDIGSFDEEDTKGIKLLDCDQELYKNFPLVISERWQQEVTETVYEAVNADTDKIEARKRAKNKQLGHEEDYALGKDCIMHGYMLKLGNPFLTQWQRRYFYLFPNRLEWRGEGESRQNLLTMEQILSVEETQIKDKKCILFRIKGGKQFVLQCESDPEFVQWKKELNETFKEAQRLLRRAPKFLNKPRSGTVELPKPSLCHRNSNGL
# Method: as §1, §2, §3, §4, §5, §6
# [11] = target: AurB/Aur1 kinase (h) (Homo sapiens (Human), UniProt Q96GD4); assay: Kinase selectivity panel: AurB/Aur1 kinase (h)
# AurB/Aur1 kinase (h), sequence (Q96GD4 whole entry): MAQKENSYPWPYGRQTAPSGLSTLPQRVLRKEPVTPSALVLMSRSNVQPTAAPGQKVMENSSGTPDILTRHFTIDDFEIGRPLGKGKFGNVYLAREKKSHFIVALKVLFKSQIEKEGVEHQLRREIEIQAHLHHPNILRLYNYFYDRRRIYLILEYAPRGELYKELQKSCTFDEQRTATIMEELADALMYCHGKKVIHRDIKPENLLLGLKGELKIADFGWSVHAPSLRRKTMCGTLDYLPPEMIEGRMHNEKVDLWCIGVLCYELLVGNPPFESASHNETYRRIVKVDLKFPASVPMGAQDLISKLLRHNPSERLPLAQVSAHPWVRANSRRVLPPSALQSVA
# Method: as §1, §2, §3, §4, §5, §6
# [12] = target: IRAK4 (h) (Homo sapiens (Human), UniProt Q9NWZ3); assay: Kinase selectivity panel: IRAK4 (h)
# IRAK4 (h), sequence (Q9NWZ3 whole entry): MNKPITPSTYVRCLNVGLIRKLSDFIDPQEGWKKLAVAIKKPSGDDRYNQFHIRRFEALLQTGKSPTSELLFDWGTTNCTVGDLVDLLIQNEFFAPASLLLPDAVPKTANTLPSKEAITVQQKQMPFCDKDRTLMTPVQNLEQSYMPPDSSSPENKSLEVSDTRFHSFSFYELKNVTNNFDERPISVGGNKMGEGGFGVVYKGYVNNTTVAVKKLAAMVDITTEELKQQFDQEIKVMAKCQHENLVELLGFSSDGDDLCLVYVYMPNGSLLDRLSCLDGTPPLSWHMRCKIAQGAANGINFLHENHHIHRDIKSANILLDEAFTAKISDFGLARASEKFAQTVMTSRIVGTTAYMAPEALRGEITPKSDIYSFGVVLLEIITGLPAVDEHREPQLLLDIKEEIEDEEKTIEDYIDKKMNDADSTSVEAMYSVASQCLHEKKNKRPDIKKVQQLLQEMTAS
# Method: as §1, §2, §3, §4, §5, §6
# [13] = target: AurA/Aur2 kinase (h) (Homo sapiens (Human), UniProt O14965); assay: Kinase selectivity panel: AurA/Aur2 kinase (h)
# Method: as §1, §2, §3, §4, §5, §6
# [14] = target: Akt1/PKBalpha (h) (Homo sapiens (Human), UniProt P31749); assay: Kinase selectivity panel: Akt1/PKBalpha (h)
# Akt1/PKBalpha (h), sequence (P31749 whole entry): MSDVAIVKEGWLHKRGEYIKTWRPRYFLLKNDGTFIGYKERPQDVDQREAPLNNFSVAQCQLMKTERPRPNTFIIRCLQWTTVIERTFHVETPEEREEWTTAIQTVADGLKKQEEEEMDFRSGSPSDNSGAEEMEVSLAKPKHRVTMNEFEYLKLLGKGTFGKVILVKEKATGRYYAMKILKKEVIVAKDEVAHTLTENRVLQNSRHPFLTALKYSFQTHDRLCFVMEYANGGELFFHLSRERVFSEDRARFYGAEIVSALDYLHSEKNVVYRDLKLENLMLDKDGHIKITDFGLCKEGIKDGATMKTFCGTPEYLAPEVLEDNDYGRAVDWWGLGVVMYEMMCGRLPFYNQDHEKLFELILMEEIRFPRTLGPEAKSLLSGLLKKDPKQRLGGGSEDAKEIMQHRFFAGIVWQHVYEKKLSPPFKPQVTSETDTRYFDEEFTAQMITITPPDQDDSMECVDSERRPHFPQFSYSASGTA
# Method: as §1, §2, §3, §4, §5, §6
# [15] = target: JAK2 (h) (Homo sapiens (Human), UniProt O60674); assay: Kinase selectivity panel: JAK2 (h)
# Method: as §1, §2, §3, §4, §5, §6
# [16] = target: PKCgamma (h) (Homo sapiens (Human), UniProt P05129); assay: Kinase selectivity panel: PKCgamma (h)
# Method: as §1, §2, §3, §4, §5, §6
# [17] = target: p38alpha kinase (h) (Homo sapiens (Human), UniProt Q16539); assay: Kinase selectivity panel: p38alpha kinase (h)
# Method: as §1, §2, §3, §4, §5, §6
# [18] = target: CaMK4 (h) (Homo sapiens (Human), UniProt Q16566); assay: Kinase selectivity panel: CaMK4 (h)
# Method: as §1, §2, §3, §4, §5, §6
# [19] = target: HGK (h) (MAP4K4) (Homo sapiens (Human), UniProt O95819); assay: Kinase selectivity panel: HGK (h) (MAP4K4)
# Method: as §1, §2, §3, §4, §5, §6
# [20] = target: PKCalpha (h) (Homo sapiens (Human), UniProt P17252); assay: Kinase selectivity panel: PKCalpha (h)
# Method: as §1, §2, §3, §4, §5, §6
# [21] = target: Ret kinase (h) (Homo sapiens (Human), UniProt P07949); assay: Kinase selectivity panel: Ret kinase (h)
# Method: as §1, §2, §3, §4, §5, §6
# [22] = target: IRK (h) (InsR) (Homo sapiens (Human), UniProt P06213); assay: Kinase selectivity panel: IRK (h) (InsR)
# IRK (h) (InsR), sequence (P06213 28-1382): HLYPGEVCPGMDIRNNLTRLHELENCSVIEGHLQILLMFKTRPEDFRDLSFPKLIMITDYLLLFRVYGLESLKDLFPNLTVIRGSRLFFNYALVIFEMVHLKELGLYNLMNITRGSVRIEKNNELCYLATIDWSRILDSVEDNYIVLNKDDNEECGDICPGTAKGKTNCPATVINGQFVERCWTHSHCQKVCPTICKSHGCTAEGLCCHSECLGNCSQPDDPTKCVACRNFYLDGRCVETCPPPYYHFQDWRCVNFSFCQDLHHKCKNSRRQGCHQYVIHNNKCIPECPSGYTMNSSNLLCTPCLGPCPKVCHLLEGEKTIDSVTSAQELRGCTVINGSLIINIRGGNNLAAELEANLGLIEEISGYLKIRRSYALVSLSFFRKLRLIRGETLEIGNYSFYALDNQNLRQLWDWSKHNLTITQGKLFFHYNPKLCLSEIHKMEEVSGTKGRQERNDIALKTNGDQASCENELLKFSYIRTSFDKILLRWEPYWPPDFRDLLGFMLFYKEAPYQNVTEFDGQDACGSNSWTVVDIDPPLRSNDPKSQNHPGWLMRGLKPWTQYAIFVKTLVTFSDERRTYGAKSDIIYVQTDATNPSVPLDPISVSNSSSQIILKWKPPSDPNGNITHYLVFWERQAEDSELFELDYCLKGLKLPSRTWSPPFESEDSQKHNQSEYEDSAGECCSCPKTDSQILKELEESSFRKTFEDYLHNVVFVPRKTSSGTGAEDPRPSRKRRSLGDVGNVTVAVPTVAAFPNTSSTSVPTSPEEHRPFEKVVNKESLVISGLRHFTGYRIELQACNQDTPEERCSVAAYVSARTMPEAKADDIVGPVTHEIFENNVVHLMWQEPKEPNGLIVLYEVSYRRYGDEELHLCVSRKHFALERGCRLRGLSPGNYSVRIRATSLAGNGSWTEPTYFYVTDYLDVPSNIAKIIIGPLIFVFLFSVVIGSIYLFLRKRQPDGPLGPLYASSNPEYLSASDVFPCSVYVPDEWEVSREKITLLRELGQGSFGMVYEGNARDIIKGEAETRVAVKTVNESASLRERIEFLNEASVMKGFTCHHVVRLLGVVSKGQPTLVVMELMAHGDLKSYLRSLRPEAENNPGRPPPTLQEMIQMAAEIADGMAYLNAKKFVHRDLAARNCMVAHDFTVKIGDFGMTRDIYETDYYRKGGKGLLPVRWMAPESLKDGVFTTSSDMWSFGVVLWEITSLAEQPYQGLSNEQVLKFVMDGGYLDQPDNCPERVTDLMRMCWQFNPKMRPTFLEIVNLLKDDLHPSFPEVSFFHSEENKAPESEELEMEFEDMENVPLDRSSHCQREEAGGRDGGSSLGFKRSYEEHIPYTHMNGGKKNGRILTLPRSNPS
# Method: as §1, §2, §3, §4, §5, §6
# [23] = target: TRKA (h) (Homo sapiens (Human), UniProt P04629); assay: Kinase selectivity panel: TRKA (h)
# Method: as §1, §2, §3, §4, §5, §6
# [24] = target: EphB4 kinase (h) (Homo sapiens (Human), UniProt P54760); assay: Kinase selectivity panel: EphB4 kinase (h)
# Method: as §1, §2, §3, §4, §5, §6
# [25] = target: CDC2/CDK1 (h) (cycB) (Homo sapiens (Human), UniProt P06493); assay: Kinase selectivity panel: CDC2/CDK1 (h) (cycB)
# Method: as §1, §2, §3, §4, §5, §6
# [26] = target: DYRK1a (h) (Homo sapiens (Human), UniProt Q13627); assay: Kinase selectivity panel: DYRK1a (h)
# Method: as §1, §2, §3, §4, §5, §6
# [27] = target: DAPK1 (h) (Homo sapiens (Human), UniProt P53355); assay: Kinase selectivity panel: DAPK1 (h)
# Method: as §1, §2, §3, §4, §5, §6
compound,measurement,setting,value
COc1ccc2[nH]nc(C(=O)NCC3CCN(CCC(=O)O)CC3)c2c1 [Compound 3],inhibition at 10 µM,[1],0%
same,inhibition at 10 µM,[2],0%
same,inhibition at 10 µM,[3],0%
same,inhibition at 10 µM,[4],21%
same,inhibition at 10 µM,[5],12%
same,inhibition at 10 µM,[6],0%
same,inhibition at 10 µM,[7],0%
same,inhibition at 10 µM,[8],0%
same,inhibition at 10 µM,[9],3%
same,inhibition at 10 µM,[10],0%
same,inhibition at 10 µM,[11],0%
same,inhibition at 10 µM,[12],0%
same,inhibition at 10 µM,[13],4%
same,inhibition at 10 µM,[14],0%
same,inhibition at 10 µM,[15],0%
same,inhibition at 10 µM,[16],2%
same,inhibition at 10 µM,[17],0%
same,inhibition at 10 µM,[18],15%
same,inhibition at 10 µM,[19],3%
same,inhibition at 10 µM,[20],5%
same,inhibition at 10 µM,[21],0%
same,inhibition at 10 µM,[22],0%
same,inhibition at 10 µM,[23],0%
same,inhibition at 10 µM,[24],0%
same,inhibition at 10 µM,[25],8%
same,inhibition at 10 µM,[26],51%
same,inhibition at 10 µM,[27],3%
